The record followed here is patent publication US8377489B2, “Banana treatments” (Rohm and Haas Company, priority 2008, dated 2013).

This test deals with Banana fruit. Put plainly: Ripening of bananas after 1-MCP dip of varied duration and ethylene exposure (Comparative Example 1). The conditions noted are these: 20 microgram 1-MCP per liter with 0.6 ml/l NuFilm 17; for peel colour after 12 days: 12 days after exposure to ethylene. Format: in vivo, Musa. The text has this: The following Examples, the color of banana peels is rated according to a seven stage rating scale, published by Chiquita Brands International, Inc. (http://www.chiquita.com/chiquita/Discover/cbripen.asp): stage 1 (dark green); stage 2 (all light green); stage 3 (more green than yellow); stage 4 (more yellow than green); stage 5 (green tips and necks); stage 6 (all yellow; maybe light green necks, no green tips); stage 7 (yellow flecked with brown). Consumers generally prefer to eat bananas in stage 5 or stage 6.
Banana fruit with an age of 12 weeks, grown and treated in Costa Rica. The bananas were dipped (not sprayed). The solution of every 1-MCP treatment included 0.6 ml/l NuFilm 17® 96% (elastomer-forming additive, Miller Chemical and Fertilizer Co.). Control sample had no dip. Other samples were dipped in water solution in which powdered encapsulation complex of 1-MCP in alpha-cyclodextrin was added to water to give concentration of 20 microgram 1-MCP per liter. Bananas were dipped for zero time (in and out), 5 minutes, or 20 minutes.
After 1-MCP treatment, fruit were allowed to dry on racks after treatments before being repacked in the boxes. The boxes were stored at 14° C. for 7 days. The boxes were conditioned at 20-21° C. for 6 hours before being treated with a continuous stream of 100 microliter per liter ethylene in a treatment chamber at 20° C. by 24 hours. After ethylene treatment the boxes were kept at ambient conditions (20° C. and 95% RH). Bananas were inspected at 5, 7, 10, and 12 days after exposure to ethylene.
Complete randomized design was used, with 4 treatments and 2 boxes per treatment. Clusters from each treatment were evaluated every two days after ethylene treatment.

In the case of `CC1=CC1` [Treatment 1-MCP, 1-methylcyclopropene], the ripening entry is, setting by setting: (dipped for 5 minutes) “did not ripen normally”; (dipped for 20 minutes) “did not ripen normally”. The “peel colour after 12 days” value by setting is: (dipped for 5 minutes) “remained green”; (dipped for 20 minutes) “remained green”. Besides, the “difference in ripening versus control bananas” value (dipped in and out quickly (zero time)) was “No significant difference”.
